Converted amounts (≈) assume the structure as drawn. The source made the active and inactive calls. No cut-off for these calls is given here.
What was measured:
[1] = molecular target: T1, Growth hormone secretagogue receptor type 1 (Homo sapiens, UniProt Q92847); experiment: Inverse agonist activity at SNAP-tagged human GHSR expressed in HEK293 cells assessed as inhibition of ghrelin-induced IP1 response measured after 30 mins by HTRF assay; assay type: functional, cell-based
[2] = molecular target: T1, Growth hormone secretagogue receptor type 1; experiment: Displacement of red-ghrelin from SNAP-tagged human GHSR expressed in HEK293 cells incubated for 3 hrs at 4 degC or for 1 hr at room temperature by HTRF assay; assay type: cell-based
[3] = molecular target: T1, Growth hormone secretagogue receptor type 1; details: HEK293, filed as inverse agonist, dose 1.0 10^-5M, time 30.0 min
[4] = molecular target: T1, Growth hormone secretagogue receptor type 1; experiment: Antagonist activity at SNAP-tagged human GHSR expressed in HEK293 cells assessed as inhibition of ghrelin-induced IP1 accumulation at 10^-5M measured after 30 mins by IP1-d2 derivative based HTRF assay relative to control; assay type: functional, cell-based; details: filed as antagonist, dose 1.0 10^-5M
[5] = molecular target: T1, Growth hormone secretagogue receptor type 1; experiment: Antagonist activity at SNAP-tagged human GHSR expressed in HEK293 cells assessed as inhibition of ghrelin-induced IP1 accumulation at 10^-5M measured after 30 mins by IP1-d2 derivative based HTRF assay relative to ghrelin; assay type: functional, cell-based; details: filed as antagonist, dose 1.0 10^-5M
[6] = molecular target: T1, Growth hormone secretagogue receptor type 1; experiment: Agonist activity at SNAP-tagged human GHSR expressed in HEK293 cells assessed as stimulation of ghrelin-induced increase in IP1 accumulation at 10^-5 M measured after 30 mins by IP1-d2 derivative based HTRF assay relative to ghrelin; assay type: functional, cell-based; details: filed as agonist, dose 1.0 10^-5M
[7] = molecular target: T1, Growth hormone secretagogue receptor type 1; experiment: Agonist activity at SNAP-tagged human GHSR expressed in HEK293 cells assessed as stimulation of ghrelin-induced increase in IP1 accumulation at 10^-5 M measured after 30 mins by IP1-d2 derivative based HTRF assay relative to control; assay type: functional, cell-based; details: filed as agonist, dose 1.0 10^-5M
[8] = Solubility of the compound in water; assay type: physicochemical
[9] = Toxicity in wild type C57BL6/J mouse assessed as altered breathing rate at 1 nmol, icv injection for 2 mins via cannula; details: in vivo, icv_or_intrathecal
[10] = Toxicity in wild type C57BL6/J mouse assessed as hunched posture at 1 nmol, icv injection for 2 mins via cannula; details: in vivo, icv_or_intrathecal
[11] = Toxicity in wild type C57BL6/J mouse assessed as appearance of spiky coat at 1 nmol, icv injection for 2 mins via cannula; details: in vivo, icv_or_intrathecal
[12] = Toxicity in wild type C57BL6/J mouse assessed as sickness-like behavior at 1 nmol, icv injection for 2 mins via cannula; details: in vivo, icv_or_intrathecal
[13] = Toxicity in wild type C57BL6/J mouse assessed as reduced activity at 1 nmol, icv injection for 2 mins via cannula; details: in vivo, icv_or_intrathecal
[14] = Toxicity in wild type C57BL6/J mouse assessed as effect on labored movement at 1 nmol, icv injection for 2 mins via cannula; details: in vivo, icv_or_intrathecal
[15] = Toxicity in wild type C57BL6/J mouse assessed as subdued behavior at 1 nmol, icv injection for 2 mins via cannula; details: in vivo, icv_or_intrathecal
[16] = Toxicity in wild type C57BL6/J mouse assessed as effect on early dark cycle food intake at 1 nmol, icv injection for 2 mins via cannula measured after 5 hrs (reference value: 2591 +/- 197 mg); details: in vivo, icv_or_intrathecal
[17] = Anti-orexigenic activity in wild type C57BL6/J mouse assessed as reduction in ghrelin-induced food intake at 1 nmol, icv administered via cannula for 2 mins pretreated for 15 mins followed by ghrelin stimulation and measured after 2 hrs relative to control; assay type: functional; design: scale not given: the % may be the effect or the level left; details: time 135 min, 2.25 h
[18] = Toxicity in wild type C57BL6/J mouse assessed as effect on body weight at 1 nmol, icv injection for 2 mins via cannula; details: in vivo, icv_or_intrathecal
[19] = molecular target: Growth hormone secretagogue receptor type 1 (Rattus norvegicus) (UniProt O08725); experiment: Inverse agonist activity at GHSR in Wistar rat pancreatic islets assessed as suppression of ghrelin-induced inhibition of glucose-stimulated insulin secretion at 1 uM after 1 hr in presence of glucose; assay type: tissue-based; details: Pancreas, filed as inverse agonist
Growth hormone secretagogue receptor type 1 (Rattus norvegicus), sequence (O08725 whole entry): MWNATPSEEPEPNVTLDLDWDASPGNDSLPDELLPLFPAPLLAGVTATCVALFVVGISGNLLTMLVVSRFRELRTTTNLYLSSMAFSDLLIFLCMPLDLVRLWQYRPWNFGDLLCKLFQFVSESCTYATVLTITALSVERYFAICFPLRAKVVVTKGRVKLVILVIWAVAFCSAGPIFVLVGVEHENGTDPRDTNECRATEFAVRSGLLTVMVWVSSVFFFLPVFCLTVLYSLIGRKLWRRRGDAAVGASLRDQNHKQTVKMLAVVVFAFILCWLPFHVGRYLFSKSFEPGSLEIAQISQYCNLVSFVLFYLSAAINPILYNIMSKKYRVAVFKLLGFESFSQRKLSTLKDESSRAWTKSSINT

[20] = system: Mus musculus; experiment: Suppression of compensatory hyperphagia in wild type C57BL6/J mouse assessed as reduction in cumulative food intake at 1 nmol, icv administered at 8 hrs interval for 48 hrs followed by refeeding at 2 hrs post last dose and measured for 7 days post refeeding; assay type: functional; design: scale not given: the % may be the effect or the level left; details: time 9 day

T1 sequence (Q92847 whole entry): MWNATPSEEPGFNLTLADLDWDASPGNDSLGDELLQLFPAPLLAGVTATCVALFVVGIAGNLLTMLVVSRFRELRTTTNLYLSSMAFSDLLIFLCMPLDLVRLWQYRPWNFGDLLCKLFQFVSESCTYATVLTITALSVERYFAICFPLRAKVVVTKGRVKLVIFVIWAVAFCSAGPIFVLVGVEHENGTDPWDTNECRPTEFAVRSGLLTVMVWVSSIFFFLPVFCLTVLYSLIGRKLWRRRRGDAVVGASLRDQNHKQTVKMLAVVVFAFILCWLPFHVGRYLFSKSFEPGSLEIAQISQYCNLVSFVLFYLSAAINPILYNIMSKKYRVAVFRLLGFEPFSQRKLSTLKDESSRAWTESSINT

Structure (SMILES): CCN(CC)CCc1nnc([C@@H](Cc2c[nH]c3ccccc23)NC(=O)CNC(=O)/C(C#N)=C/c2ccc(OC)cc2)n1Cc1ccc(OC)cc1
- EC50 [1]: 35 nM
- Ki [2]: 10 nM
- Emax [3]: 69%

Structure (SMILES): COc1ccc(Cn2c(CCc3c[nH]c4ccccc34)nnc2[C@@H](Cc2c[nH]c3ccccc23)NC(=O)CNC(=O)/C(C#N)=C/c2ccc(O)cc2)cc1
- Ki [2]: 30 nM

Structure (SMILES): COc1ccc(/C=C(\C#N)C(=O)NCC(=O)N[C@H](Cc2c[nH]c3ccccc23)c2nnc(CCc3ccccc3)n2Cc2ccc(OC)cc2)cc1
- EC50 [1]: 50 nM
- Ki [2]: 0.5 nM
- Emax [3]: 86%

Structure (SMILES): COc1ccc(Cn2c(CCc3ccccc3)nnc2[C@@H](Cc2c[nH]c3ccccc23)NC(=O)CNC(=O)/C(C#N)=C/c2ccc(F)cc2)cc1
- EC50 [1]: 14.2 nM
- Ki [2]: 0.6 nM
- Emax [3]: 76%

Structure (SMILES): COc1ccc(Cn2c(CCc3ccccc3)nnc2[C@@H](Cc2c[nH]c3ccccc23)NC(=O)CNC(=O)C(C)(C)C#N)cc1
- %max [4]: 70%
- %max [5]: 70%

Structure (SMILES): COc1ccc(Cn2c(CCc3ccccc3)nnc2[C@@H](Cc2c[nH]c3ccccc23)NC(=O)CN)cc1
- %max [4]: 65%
- %max [5]: 65%

Structure (SMILES): COc1ccc(/C=C(\C#N)C(=O)NCCC(=O)N[C@H](Cc2c[nH]c3ccccc23)c2nnc(CCc3ccccc3)n2Cc2ccc(OC)cc2)cc1
- EC50 [1]: 3.6 nM
- Ki [2]: 14 nM
- Emax [3]: 75%

Structure (SMILES): COc1ccc(Cn2c(CCN3CCOCC3)nnc2[C@@H](Cc2c[nH]c3ccccc23)NC(=O)CNC(=O)/C(C#N)=C/c2ccccc2)cc1
- Emax [3]: 49%

Structure (SMILES): COc1ccc(Cn2c(CCc3ccccc3)nnc2[C@@H](Cc2c[nH]c3ccccc23)NC(=O)CNC(=O)/C(C#N)=C/c2ccc(C)cc2)cc1
- EC50 [1]: 21.5 nM
- Ki [2]: 1 nM
- Emax [3]: 82%

Structure (SMILES): COc1ccc(Cn2c(CCc3ccccc3)nnc2[C@@H](Cc2c[nH]c3ccccc23)NC(=O)CNC(=O)C(C#N)Cc2ccccc2)cc1 (stereo not given in full)
- %max [4]: 72%
- %max [5]: 70%

Structure (SMILES): COc1ccc(CC(N)C(=O)NCC(=O)N[C@H](Cc2c[nH]c3ccccc23)c2nnc(CCc3ccccc3)n2Cc2ccc(OC)cc2)cc1 (single isomer, unassigned)
- EC50 [1]: 62 nM
- Ki [2]: 17 nM
- Emax [3]: 43%

Structure (SMILES): COc1ccc(Cn2c(CCc3ccccc3)nnc2[C@@H](Cc2c[nH]c3ccccc23)NC(=O)CN(C)C)cc1
- %max [6]: 76%
- %max [7]: 96%

Structure (SMILES): COc1ccc(Cn2c(CCc3ccccc3)nnc2[C@@H](Cc2c[nH]c3ccccc23)NC(=O)CNC(=O)/C(C#N)=C/c2c[nH]c3ccccc23)cc1
- EC50 [1]: 28 nM
- Ki [2]: 6.3 nM
- Emax [3]: 79%

Structure (SMILES): COc1ccc(Cn2c(CCN3CCOCC3)nnc2[C@@H](Cc2c[nH]c3ccccc23)NC(=O)CNC(=O)/C(C#N)=C/c2ccc(N(C)C)cc2)cc1
- EC50 [1]: 6 nM
- Ki [2]: 6.3 nM
- Emax [3]: 64%

Structure (SMILES): COc1ccc(/C=C(\C#N)C(=O)NCC(=O)N[C@H](Cc2c[nH]c3ccccc23)c2nnc(CCc3c[nH]c4ccccc34)n2Cc2ccc(OC)cc2)cc1
- solubility ([8]; water, read-out: solubility): 3.8 µg/mL (≈ 5.19 µM)

Structure (SMILES): COc1ccc(Cn2c(CCc3ccccc3)nnc2[C@@H](Cc2c[nH]c3ccccc23)NC(=O)CNC(=O)/C(C#N)=C/c2ccc(O)cc2)cc1
- Activity [9]: Non-Toxic
- Activity [10]: Non-Toxic
- EC50 [1]: 27 nM
- Activity [11]: Non-Toxic
- Activity [12]: Non-Toxic
- Activity [13]: Non-Toxic
- Activity [14]: Non-Toxic
- Activity [15]: Non-Toxic
- Activity [16]: 2179 mg
- Ki [2]: 3 nM
- Emax [3]: 83%
- Activity [17]: 30.3%
- Activity [18]: Non-Toxic
- Activity [19]: Active
- solubility ([8]; buffer): Soluble
- Activity [20]: 12.4%

Structure (SMILES): COc1ccc(Cn2c(CCc3ccccc3)nnc2[C@@H](Cc2c[nH]c3ccccc23)NC(=O)CNC(=O)/C(C#N)=C/c2ccc(N(C)C)cc2)cc1
- EC50 [1]: 89 nM
- Ki [2]: 2.4 nM
- Emax [3]: 78%

Structure (SMILES): CNCC(=O)N[C@H](Cc1c[nH]c2ccccc12)c1nnc(CCc2ccccc2)n1Cc1ccc(OC)cc1
- %max [6]: 76%
- %max [7]: 100%

Structure (SMILES): COc1ccc(/C=C(\C#N)C(=O)N[C@@H](C)C(=O)N[C@H](Cc2c[nH]c3ccccc23)c2nnc(CCc3ccccc3)n2Cc2ccc(OC)cc2)cc1
- EC50 [1]: 1.4 nM
- Ki [2]: 3 nM
- Emax [3]: 78%

Structure (SMILES): COc1ccc(Cn2c(CCc3ccccc3)nnc2[C@@H](Cc2c[nH]c3ccccc23)NC(=O)CNC(=O)/C=C/c2ccc(F)cc2)cc1
- %max [4]: 74%
- %max [5]: 71%

Structure (SMILES): COc1ccc(/C=C(\C#N)C(=O)OCC(=O)N[C@H](Cc2c[nH]c3ccccc23)c2nnc(CCc3ccccc3)n2Cc2ccc(OC)cc2)cc1
- Ki [2]: 13 nM

Structure (SMILES): CC(C)C[C@H](NC(=O)[C@H](CC(C)C)NC(=O)[C@@H](Cc1c[nH]c2ccccc12)NC(=O)[C@H](Cc1ccccc1)NC(=O)[C@@H](Cc1cccc2ccccc12)NC(=O)[C@@H](N)CCCCN)C(N)=O
- Activity [9]: Non-Toxic
- Activity [10]: Non-Toxic
- Activity [11]: Non-Toxic
- Activity [12]: Non-Toxic
- Activity [13]: Non-Toxic
- Activity [14]: Non-Toxic
- Activity [15]: Non-Toxic
- Activity [16]: 2623 mg
- Activity [17]: 67.6%
- Activity [18]: Non-Toxic
- Activity [20]: 20.1%

Structure (SMILES): COc1ccc(Cn2c(CCc3ccccc3)nnc2[C@@H](Cc2c[nH]c3ccccc23)NC(=O)CNC(=O)C#Cc2ccccc2)cc1
- %max [6]: 69%
- %max [7]: 95%

From ChEMBL document CHEMBL4665788, “Development of Nonpeptidic Inverse Agonists of the Ghrelin Receptor (GHSR) Based on the 1,2,4-Triazole Scaffold” (J Med Chem, 2020)
